# Source: ChEMBL document CHEMBL1149732, “New bioactive metabolites from a freshwater isolate of the fungus Kirschsteiniothelia sp” (1992)
# Active and inactive are the calls of the source. No cut-off for these calls is given here.
# What was measured:
# Bacillus subtilis [1] = assay: Antimicrobial activity against Bacillus subtilis at 5 ug/disk by disk assay; type: functional, organism-based
# Staphylococcus aureus [2] = assay: Antimicrobial activity against Staphylococcus aureus at 1 ug/disk by disk assay; type: functional, organism-based
# HT-29 = assay: Cytotoxicity against human HT-29 cells; type: functional; settings: read-out: ED50 (the source's name)
# Staphylococcus aureus [3] = assay: Antimicrobial activity against Staphylococcus aureus at 10 ug/disk by disk assay; type: functional, organism-based
# MCF7 = assay: Cytotoxicity against human MCF7 cells; type: functional; settings: read-out: ED50 (the source's name)
# Bacillus subtilis [4] = assay: Antimicrobial activity against Bacillus subtilis at 1 ug/disk by disk assay; type: functional, organism-based
# A549 = assay: Cytotoxicity against human A549 cells; type: functional; settings: read-out: ED50 (the source's name)
smiles,measurement,setting,value
Cc1cc(O)c(Cl)c(Oc2c(Cl)c(C)cc(O)c2Cl)c1,Activity,Bacillus subtilis [1],Active
Cc1cc(O)c(Cl)c(Oc2c(Cl)c(C)cc(O)c2Cl)c1Cl,Activity,Staphylococcus aureus [2],Active
COC1=CC(=O)c2c(cc(OC)c(C(C)C3=C(O)C(=O)c4cc(O)c(C(C)=O)c(O)c4C3=O)c2O)C1=O (configuration not stated) [KIRSCHSTEININ],EC50,HT-29,2.7 µg/mL
same,Activity,Staphylococcus aureus [3],Active
same,EC50,MCF7,5.2 µg/mL
same,Activity,Bacillus subtilis [4],Active
same,EC50,A549,3.1 µg/mL
